Measured values taken from patent US9023855B2, “Compounds” (Chiesi Farmaceutici S.p.A., priority 2011, dated 2015).

target: T1, human neutrophil elastase (HNE) (Homo sapiens, UniProt P08246); test: HNE enzyme assay (fluorogenic peptide substrate MeOSuc-Ala-Ala-Pro-Val-AMC); type: biochemical; conditions: human leukocyte elastase, substrate 100 μM, 25° C., 30 minutes, at least two separate experiments; read-out: HNE inhibition (IC50 values)
T1 construct: purchased Sigma E8140
T1 sequence (P08246 30-267): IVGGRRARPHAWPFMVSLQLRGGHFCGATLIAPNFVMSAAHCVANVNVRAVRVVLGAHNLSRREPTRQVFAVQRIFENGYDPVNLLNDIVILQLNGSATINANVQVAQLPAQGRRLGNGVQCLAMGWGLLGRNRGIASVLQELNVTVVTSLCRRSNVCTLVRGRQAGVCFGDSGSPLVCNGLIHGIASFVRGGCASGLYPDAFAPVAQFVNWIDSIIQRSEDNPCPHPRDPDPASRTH
Description: Compounds of this invention were tested for potency in a human neutrophil elastase (HNE) enzyme activity assay.
Assays were performed in 96-well plates in a total assay volume of 100 μl. The final concentration of elastase enzyme (human leukocyte elastase, Sigma E8140) was 0.0036 units/well […]. The peptide substrate (MeOSuc-Ala-Ala-Pro-Val-AMC, Calbiochem #324740) was used at a final concentration of 100 μM. The final concentration of DMSO was 1% in the assay buffer (0.05M Tris.HCl, 0.1M NaCl, 0.1M CaCl2, 0.0005% brij-35, pH 7.5). The enzymatic reaction was started by addition of the enzyme and incubated at 25° C. for 30 minutes. After incubation, the reaction was stopped by addition of soybean trypsin inhibitor (Sigma T9003) at a final concentration of 50 μg/well. Fluorescence was measured using a Molecular Devices fluorescence plate reader using 380 nm excitation and 460 nm emission wavelengths.
A dose response to each compound was performed, and the effect of the compound in each experiment was expressed as a percentage inhibition of the control enzyme fluorescence. Dose response curves were plotted and compound potency (IC50) was determined. Compounds were tested in at least two separate experiments.

Row | SMILES | IC50
1 | COC(=O)C1=C(C)N(c2cccc(C(F)(F)F)c2)c2n[nH]c(=O)n2C1c1ccc(C#N)cc1 (stereo not shown) [Example 1, 5-(4-Cyanophenyl)-7-methyl-3-oxo-8-(3-trifluoromethylphenyl)-2,3,5,8-tetrahydro-[1,2,4]triazolo[4,3-a]pyrimidine-6-carboxylic acid methyl ester] | < 20 nM
2 | COC(=O)C1=C(C)N(c2cccc(C(F)(F)F)c2)c2nn(CC(N)=O)c(=O)n2C1c1ccc(C#N)cc1 (stereo not shown) [Example 2, 2-Carbamoylmethyl-5-(4-cyanophenyl)-7-methyl-3-oxo-8-(3-trifluoromethylphenyl)-2,3,5,8-tetrahydro-[1,2,4]triazolo[4,3-a]pyrimidine-6-carboxylic acid methyl ester] | < 20 nM
3 | COC(=O)C1=C(C)N(c2cccc(C(F)(F)F)c2)c2nn(CCCN(C)C)c(=O)n2C1c1ccc(C#N)cc1 (stereo not shown) [Example 3] | < 20 nM
4 | COC(=O)C1=C(C)N(c2cccc(C(F)(F)F)c2)c2nn(Cc3ccccc3)c(=O)n2C1c1ccc(C#N)cc1 (stereo not shown) [Example 4, 2-Benzyl-5-(4-cyanophenyl)-7-methyl-3-oxo-8-(3-trifluoromethyl-phenyl)-2,3,5,8-tetrahydro-[1,2,4]triazolo[4,3-a]pyrimidine-6-carboxylic acid methyl ester] | 20 to 100 nM
5 | C=CCn1nc2n(c1=O)C(c1ccc(C#N)cc1)C(C(=O)OC)=C(C)N2c1cccc(C(F)(F)F)c1 (stereo not shown) [Example 5, 2-Allyl-5-(4-cyanophenyl)-7-methyl-3-oxo-8-(3-trifluoromethyl-phenyl)-2,3,5,8-tetrahydro-[1,2,4]triazolo[4,3-a]pyrimidine-6-carboxylic acid methyl ester] | < 20 nM
6 | COC(=O)C1=C(C)N(c2cccc(C(F)(F)F)c2)c2nn(C)c(=O)n2C1c1ccc(C#N)cc1 (stereo not shown) [Example 6, 5-(4-Cyanophenyl)-2,7-dimethyl-3-oxo-8-(3-trifluoromethylphenyl)-2,3,5,8-tetrahydro-[1,2,4]triazolo[4,3-a]pyrimidine-6-carboxylic acid methyl ester] | < 20 nM
7 | CC1=C(C(=O)O)C(c2ccc(C#N)cc2)n2c(n[nH]c2=O)N1c1cccc(C(F)(F)F)c1 (stereo not shown) [Example 9, 5-(4-Cyano-phenyl)-7-methyl-3-oxo-8-(3-trifluoromethyl-phenyl)-2,3,5,8-tetrahydro-[1,2,4]triazolo[4,3-a]pyrimidine-6-carboxylic acid] | < 20 nM
8 | CC1=C(C(=O)OCCN(C)C)C(c2ccc(C#N)cc2)n2c(n[nH]c2=O)N1c1cccc(C(F)(F)F)c1 (stereo not shown) [Example 10, 5-(4-Cyano-phenyl)-7-methyl-3-oxo-8-(3-trifluoromethyl-phenyl)-2,3,5,8-tetrahydro-[1,2,4]triazolo[4,3-a]pyrimidine-6-carboxylic acid 2-dimethylamino-ethyl ester] | < 20 nM
9 | CC1=C(C(=O)OCCCN(C)C)C(c2ccc(C#N)cc2)n2c(n[nH]c2=O)N1c1cccc(C(F)(F)F)c1 (stereo not shown) [Example 11, 5-(4-Cyano-phenyl)-7-methyl-3-oxo-8-(3-trifluoromethyl-phenyl)-2,3,5,8-tetrahydro-[1,2,4]triazolo[4,3-a]pyrimidine-6-carboxylic acid 3-dimethylamino-propyl ester] | < 20 nM
10 | CCNC(=O)C1=C(C)N(c2cccc(C(F)(F)F)c2)c2n[nH]c(=O)n2C1c1ccc(C#N)cc1 (stereo not shown) [Example 12, 5-(4-Cyano-phenyl)-7-methyl-3-oxo-8-(3-trifluoromethyl-phenyl)-2,3,5,8-tetrahydro-[1,2,4]triazolo[4,3-a]pyrimidine-6-carboxylic acid ethylamide] | 20 to 100 nM
11 | COC(=O)C1=C(C)N(c2cccc(C(F)(F)F)c2)c2n[nH]c(=O)n2C1c1ccc(C#N)cc1S(C)(=O)=O (stereo not shown) [Example 13, 5-(4-Cyano-2-methanesulfonyl-phenyl)-7-methyl-3-oxo-8-(3-trifluoromethyl-phenyl)-2,3,5,8-tetrahydro-[1,2,4]triazolo[4,3-a]pyrimidine-6-carboxylic acid methyl ester] | < 20 nM
12 | CC1=C(C#N)C(c2ccc(C#N)cc2)n2c(n[nH]c2=O)N1c1cccc(C(F)(F)F)c1 (stereo not shown) [Example 14, 5-(4-Cyano-phenyl)-7-methyl-3-oxo-8-(3-trifluoromethyl-phenyl)-2,3,5,8-tetrahydro-[1,2,4]triazolo[4,3-a]pyrimidine-6-carbonitrile] | < 20 nM

Now from value to compound:

Row | IC50 | SMILES
13 | < 20 nM | COC(=O)C1=C(C)N(c2cccc(C(F)(F)F)c2)c2nn(-c3ccc(S(C)(=O)=O)cc3)c(=O)n2C1c1ccc(C#N)cc1 (stereo not shown) [Example 15, 5-(4-Cyano-phenyl)-2-(4-methanesulfonyl-phenyl)-7-methyl-3-oxo-8-(3-trifluoromethyl-phenyl)-2,3,5,8-tetrahydro-[1,2,4]triazolo[4,3-a]pyrimidine-6-carboxylic acid methyl ester]
14 | < 20 nM | COC(=O)C1=C(C)N(c2cccc(C(F)(F)F)c2)c2nn(CCCS(C)(=O)=O)c(=O)n2C1c1ccc(C#N)cc1 (stereo not shown) [Example 16, 5-(4-Cyano-phenyl)-2-(3-methanesulfonyl-propyl)-7-methyl-3-oxo-8-(3-trifluoromethyl-phenyl)-2,3,5,8-tetrahydro-[1,2,4]triazolo[4,3-a]pyrimidine-6-carboxylic acid methyl ester]
15 | < 20 nM | COC(=O)C1=C(C)N(c2cccc(C(F)(F)F)c2)c2nn(Cc3ccc(S(C)(=O)=O)cc3)c(=O)n2[C@@H]1c1ccc(C#N)cc1 [Example 17, (R)-5-(4-Cyano-phenyl)-2-(4-methanesulfonyl-benzyl)-7-methyl-3-oxo-8-(3-trifluoromethyl-phenyl)-2,3,5,8-tetrahydro-[1,2,4]triazolo[4,3-a]pyrimidine-6-carboxylic acid methyl ester]
16 | < 20 nM | COC(=O)C1=C(C)N(c2cccc(C(F)(F)F)c2)c2nn(CCCS(C)(=O)=O)c(=O)n2[C@@H]1c1ccc(C#N)cc1 [Example 18, (R)-5-(4-Cyano-phenyl)-2-(3-methanesulfonyl-propyl)-7-methyl-3-oxo-8-(3-trifluoromethyl-phenyl)-2,3,5,8-tetrahydro-[1,2,4]triazolo[4,3-a]pyrimidine-6-carboxylic acid methyl ester]
17 | 20 to 100 nM | COC(=O)C1=C(C)N(c2cccc(C(F)(F)F)c2)c2nn(S(=O)(=O)c3ccc(CN(C)CCN(C)C)cc3)c(=O)n2C1c1ccc(C#N)cc1 (stereo not shown) [Example 19, 5-(4-Cyano-phenyl)-2-(4-{[(2-dimethylamino-ethyl)-methyl-amino]-methyl}-benzenesulfonyl)-7-methyl-3-oxo-8-(3-trifluoromethyl-phenyl)-2,3,5,8-tetrahydro-[1,2,4]triazolo[4,3-a]pyrimidine-6-carboxylic acid methyl ester]
18 | < 20 nM | COC(=O)C1=C(C)N(c2cccc(C(F)(F)F)c2)c2nn(CCc3ccc(S(C)(=O)=O)cc3)c(=O)n2[C@@H]1c1ccc(C#N)cc1 [Example 20, (R)-5-(4-Cyano-phenyl)-2-[2-(4-methanesulfonyl-phenyl)-ethyl]-7-methyl-3-oxo-8-(3-trifluoromethyl-phenyl)-2,3,5,8-tetrahydro-[1,2,4]triazolo[4,3-a]pyrimidine-6-carboxylic acid methyl ester]
19 | < 20 nM | COC(=O)C1=C(C)N(c2cccc(C(F)(F)F)c2)c2nn(Cc3ccc(CN(C)C)cc3)c(=O)n2C1c1ccc(C#N)cc1 (stereo not shown) [Example 21, 5-(4-Cyano-phenyl)-2-(4-dimethylaminomethyl-benzyl)-7-methyl-3-oxo-8-(3-trifluoromethyl-phenyl)-2,3,5,8-tetrahydro-[1,2,4]triazolo[4,3-a]pyrimidine-6-carboxylic acid methyl ester]
